Experimental data as given in patent US20060134206A1, “Oral compositions for treatment of diseases” (priority 2003, published 2006).
Each block holds one compound with its values, some of them ahead of it.

What was measured:
[1] = test system: human vascular ATP-dependent K+ channels; settings: cited from earlier work
[2] = allows once daily treatment; cited from earlier work
people with diabetes = settings: versus placebo, cited from earlier work
[3] = oral, conventional metformin; cited from earlier work
[4] = cited from earlier work
[5] = In-house study: metformin co-administered with propantheline; assay type: in vivo; settings: compared with metformin alone
type 2 diabetes patients = settings: overweight type 2 diabetes patients assigned metformin; microvascular and macrovascular; cited from earlier work

Compound: CCC1=C(C)CN(C(=O)NCCc2ccc(S(=O)(=O)NC(=O)N[C@H]3CC[C@H](C)CC3)cc2)C1=O [glimepiride]
- effect on human vascular ATP-dependent K+ channels [1]: no effect
- long life [2]: 9 h

Compound: CCOC(=O)[C@H](CCc1ccccc1)N[C@@H](C)C(=O)N1[C@H](C(=O)O)C[C@@H]2CCC[C@@H]21 [ramipril]
- lowering of relative risk of a major cardiovascular event (myocardial infarction, stroke or cardiovascular death) (people with diabetes; 3,577 people with diabetes, 4.5 years): 25%
- lowering of absolute risk of a major cardiovascular event (people with diabetes; 3,577 people with diabetes): 4.5%
- absolute risk reduction of overt nephropathy (people with diabetes; people with diabetes): 2.0%
- reduction of relative risk of overt nephropathy (people with diabetes; people with diabetes): 24%

- AUC [5]: increased
- Tmax [5]: delayed
- time period over which therapeutically beneficial plasma levels were maintained [5]: extended
Compound: CN(C)C(=N)N=C(N)N [metformin]
- gastrointestinal absorption apparently complete (time after ingestion) [3]: ≤ 6 h
- drug in plasma ([4]; drug perfused into the colon): not detectable
- area under the plasma concentration-time profile, jejunum versus ileum perfusion ([4]; perfusion into jejunum compared with ileum): 2.5 fold
- relative risk reduction of developing any diabetes related end points (type 2 diabetes patients): 32%
